Laboratory results as given in ChEMBL document CHEMBL5543083, “3,5-Disubstituted-thiazolidine-2,4-dione hybrids as antidiabetic agents: Design, synthesis, in-vitro and In vivo evaluation” (Eur J Med Chem, 2024).
Values after ≈ are worked out from the molar mass of the structure shown. Active and inactive are the calls of the source. No cut-off for these calls is given here.

Tests used:
Alpha amylase = biological target: T1, Alpha amylase (Homo sapiens, UniProt P0DUB6); test: Inhibition of Alpha-amylase (unknown origin); format: protein assay
T1 sequence (P0DUB6 whole entry): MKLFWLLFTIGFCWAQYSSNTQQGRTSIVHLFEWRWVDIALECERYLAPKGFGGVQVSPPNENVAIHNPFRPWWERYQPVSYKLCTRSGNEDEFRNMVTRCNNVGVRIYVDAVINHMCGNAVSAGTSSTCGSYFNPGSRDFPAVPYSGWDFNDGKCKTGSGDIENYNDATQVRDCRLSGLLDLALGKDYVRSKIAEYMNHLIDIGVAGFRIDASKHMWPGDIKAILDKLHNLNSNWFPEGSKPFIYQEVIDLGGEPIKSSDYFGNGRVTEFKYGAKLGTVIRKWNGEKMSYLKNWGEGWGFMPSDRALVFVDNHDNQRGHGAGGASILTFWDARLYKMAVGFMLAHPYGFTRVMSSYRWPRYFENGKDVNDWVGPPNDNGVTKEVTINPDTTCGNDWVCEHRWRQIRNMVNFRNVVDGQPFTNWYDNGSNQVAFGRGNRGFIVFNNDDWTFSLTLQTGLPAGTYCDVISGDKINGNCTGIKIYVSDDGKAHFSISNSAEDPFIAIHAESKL

Alpha-glucosidase = Alpha-glucosidase (Saccharomyces cerevisiae S288c, UniProt P53341+P38158+P07265); test: Inhibition of yeast Alpha glucosidase 4-nitrophenyl-alpha-D-glucopyranoside incubated for 15 to 20 mins by Bio-rad microplate reader analysis; format: protein assay
PANC-1 [1] = test: Induction of ROS production in high glucose-induced human PANC-1 cells assessed as maximum fluorescence intensity at 10 uM incubated for 30 mins DCFDA-staining based flow cytometry analysis (reference value: 15.09); format: functional; settings: 0.5 h
Alpha-amylase = biological target: T2, Alpha-amylase (Sus scrofa domesticus, UniProt Q7M328); test: Inhibition of porcine pancreatic Alpha-amylase using starch as substrate preincubated for 10 mins followed by substrate addition and measured after 15 mins by Bio-rad microplate reader analysis
T2 sequence (Q7M328 whole entry): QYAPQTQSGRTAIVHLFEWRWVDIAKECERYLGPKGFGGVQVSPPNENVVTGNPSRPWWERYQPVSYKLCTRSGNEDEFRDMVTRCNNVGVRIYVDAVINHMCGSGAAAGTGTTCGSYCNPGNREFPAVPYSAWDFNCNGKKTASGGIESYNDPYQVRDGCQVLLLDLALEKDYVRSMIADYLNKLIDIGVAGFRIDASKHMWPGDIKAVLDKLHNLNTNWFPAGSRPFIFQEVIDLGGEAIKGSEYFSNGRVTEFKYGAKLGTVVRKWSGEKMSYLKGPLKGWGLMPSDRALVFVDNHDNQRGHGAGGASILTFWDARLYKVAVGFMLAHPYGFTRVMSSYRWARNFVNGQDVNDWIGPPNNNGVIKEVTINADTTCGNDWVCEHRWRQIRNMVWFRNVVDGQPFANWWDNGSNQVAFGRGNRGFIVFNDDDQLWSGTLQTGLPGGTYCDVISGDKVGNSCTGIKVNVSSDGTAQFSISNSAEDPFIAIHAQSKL

[2] = Antioxidant activity assessed as DPPH radical scavenging activity measured for 30 mins by spectrophotometric analysis; format: functional
PANC-1 [3] = test: Cytotoxicity against human PANC-1 cells assessed as inhibition of cell growth; format: functional, cell-based
Rattus norvegicus [4] = test: Antidiabetic activity against streptozotocin-induced Wistar rat assessed as increase in PPAR-gamma level at 10 mg/kg, po measured upto 35 days by ELISA analysis; format: functional, organism-based; settings: time <= 35.0 day
Rattus norvegicus [5] = test: Antidiabetic activity against streptozotocin-induced Wistar rat assessed as decrease in blood glucose level at 10 mg/kg, po measured at 30 mins by oral glucose test; format: functional, organism-based
[6] = Toxicity in Wistar rat assessed as decrease in body weight at 10 mg/kg, po measured on day 35; format: organism-based; settings: in vivo, 840 h, time 35 day
[7] = Toxicity in streptozotocin-induced Wistar rat assessed as change in blood lymphocyte count at 10 mg/kg, po measured up to 35 days; format: organism-based; settings: in vivo, 840 h, time < 35 day
[8] = Toxicity in Wistar rat assessed as decrease in body weight at 10 mg/kg, po measured on day 14; format: organism-based; settings: in vivo, 336 h, time 14 day
Rattus norvegicus [9] = test: Antidiabetic activity against streptozotocin-induced Wistar rat assessed as increase in IL1-beta level in Pancreas at 10 mg/kg, po measured upto 35 days; format: functional, organism-based; settings: time <= 35.0 day
Rattus norvegicus [10] = test: Antidiabetic activity against streptozotocin-induced Wistar rat assessed as decrease in SOD level at 10 mg/kg, po measured upto 35 days; format: functional, organism-based; settings: time <= 35.0 day
Rattus norvegicus [11] = test: Antidiabetic activity against streptozotocin-induced Wistar rat assessed as decrease in MDA level at 10 mg/kg, po measured upto 35 days; format: functional, organism-based; settings: time <= 35.0 day
[12] = Toxicity in streptozotocin-induced Wistar rat assessed as morphological changes in liver at 10 mg/kg, po measured up to 35 days; format: organism-based; settings: in vivo, 840 h, time < 35 day
Rattus norvegicus [13] = test: Antidiabetic activity against Wistar rat assessed as effect on glutathione level at 10 mg/kg, po measured upto 35 days; format: functional, organism-based; settings: time <= 35.0 day
Rattus norvegicus [14] = test: Antidiabetic activity against streptozotocin-induced Wistar rat assessed as effect on blood glucose level at 10 mg/kg, po measured on day 4; format: functional, organism-based; settings: time 4.0 day
[15] = Toxicity in streptozotocin-induced Wistar rat assessed as decrease in glomeruli shrinkage in kidney at 10 mg/kg, po measured up to 35 days; format: organism-based; settings: in vivo, 840 h, time < 35 day
Rattus norvegicus [16] = test: Antidiabetic activity against streptozotocin-induced Wistar rat assessed as effect on blood glucose level at 10 mg/kg, po measured on day 1; format: functional, organism-based; settings: time 1.0 day
Rattus norvegicus [17] = test: Antidiabetic activity against streptozotocin-induced Wistar rat assessed as increase in serum ALP level at 10 mg/kg, po measured upto 35 days; format: functional, organism-based; settings: time <= 35.0 day
Rattus norvegicus [18] = test: Antidiabetic activity against streptozotocin-induced Wistar rat assessed as decrease in triglyceride level at 10 mg/kg, po measured upto 35 days; format: functional, organism-based; settings: time <= 35.0 day
Rattus norvegicus [19] = test: Antidiabetic activity against streptozotocin-induced Wistar rat assessed as decrease in HDL level at 10 mg/kg, po measured upto 35 days; format: functional, organism-based; settings: time <= 35.0 day
[20] = Inhibition of Alpha glucosidase (unknown origin); design: species or system Homo sapiens
[21] = Homo sapiens, PANC-1, read-out: IC50

Row | Compound | IC50 (Alpha-glucosidase) [µM] | Flu intensity (PANC-1 [1]) | IC50 (Alpha-amylase; read-out: IC50) [µM] | IC50 ([2]; read-out: IC50) [µM] | IC50 (PANC-1 [3]; [21]) [µM] | other results
1 | O=C(O)CN1C(=O)S/C(=C\c2cn(-c3ccccc3)nc2-c2ccc([N+](=O)[O-])cc2)C1=O |  |  |  |  |  | IC50 (Alpha amylase): 4.08 µg/mL (≈ 9.06 µM)
2 | N#Cc1ccccc1-c1ccc(N2C(=O)S/C(=C\c3ccccc3Oc3ccccc3)C2=O)cc1 |  |  |  |  |  | IC50 (Alpha amylase): 0.13 µg/mL (≈ 0.274 µM)
3 | O=C1S/C(=C\c2ccc(-c3ccccc3)cc2)C(=O)N1Cc1cccc([N+](=O)[O-])c1 | 15.37 | 23092 | 82.2 | 32.6 | 126 | 
4 | CCc1ccc(CCOc2ccc(CC3SC(=O)NC3=O)cc2)nc1 (centres undefined) [PIOGLITAZONE] |  |  |  |  |  | Activity (Rattus norvegicus [4]): Active; Activity (Rattus norvegicus [5]): Active; Activity [6]: Toxic; Activity [7]: Non-Toxic; Activity [8]: Non-Toxic; Activity (Rattus norvegicus [9]): Active; Activity (Rattus norvegicus [10]): Active; Activity (Rattus norvegicus [11]): Active; Activity [12]: Non-Toxic; Activity (Rattus norvegicus [13]): Active; Activity (Rattus norvegicus [14]): Active; Activity [15]: Toxic; Activity (Rattus norvegicus [16]): Active; Activity (Rattus norvegicus [17]): Active; Activity (Rattus norvegicus [18]): Active; Activity (Rattus norvegicus [19]): Active
5 | O=C1S/C(=C\c2c[nH]c3ccccc23)C(=O)N1Cc1ccccc1 | 25.76 | 22679 | 82.2 | 30.2 | 191 | 
6 | O=C1S/C(=C\c2ccc(Cl)cc2)C(=O)N1Cc1cccc([N+](=O)[O-])c1 | 22.61 |  | 44.7 | 32.2 | 94.9 | 
7 | O=C1O[C@H]([C@@H](O)CO)C(O)=C1O [ASCORBIC ACID] |  |  |  | 25.1 |  | IC50 (Alpha-amylase): Not Active
8 | COc1cc(OC)c(OC)cc1/C=C1\SC(=O)N(Cc2cccc([N+](=O)[O-])c2)C1=O | 54.01 | 25238 | 30.8 | 30.6 | 203 | 
9 | COc1ccc(/C=C2\SC(=O)N(Cc3cccc([N+](=O)[O-])c3)C2=O)cc1 | 57.1 | 84568 | 118 | 325 | 104 | 
10 | COc1cccc(/C=C2\SC(=O)N(Cc3cccc([N+](=O)[O-])c3)C2=O)c1OC | 153.1 | 2271 | 79.1 | 13.6 | 179 | 
11 | CN(C)c1ccc(/C=C2\SC(=O)N(Cc3cccc([N+](=O)[O-])c3)C2=O)cc1 | 16.9 | 76992 | 81.1 | 211 | 194 | 
12 | O=C1S/C(=C\c2c(Cl)cccc2Cl)C(=O)N1Cc1cccc([N+](=O)[O-])c1 | 37.94 | 25204 | 25.1 | 31.1 | 123 | 
13 | C=CCN1C(=O)S/C(=C\c2ccc(Cl)cc2Cl)C1=O |  |  |  |  |  | IC50 [20]: 18.19 µg/mL (≈ 57.9 µM); IC50 (Alpha amylase): 43.85 µg/mL (≈ 140 µM)
14 | COc1cc(/C=C2\SC(=O)N(Cc3cccc([N+](=O)[O-])c3)C2=O)cc(OC)c1OC | 39.68 |  | 39.3 | 68 | 195 | 
15 | O=C1S/C(=C\c2cccc(Cl)c2Cl)C(=O)N1Cc1cccc([N+](=O)[O-])c1 | 54 | 65017 | 30.4 | 44.6 | 179 | 
16 | O=C1S/C(=C\c2ccc(O)cc2)C(=O)N1Cc1cccc([N+](=O)[O-])c1 | 29.28 | 35829 | 42.9 | 34.9 | 32 | 
17 | COc1ccc(OC)c(/C=C2\SC(=O)N(Cc3cccc([N+](=O)[O-])c3)C2=O)c1 | 201 | 58455 | 48.1 | 41.8 | 62.6 | 
18 | C[C@H]1O[C@H](O[C@H]2[C@H](O)[C@@H](O)[C@@H](O[C@H]3[C@H](O)[C@@H](O)C(O)O[C@@H]3CO)O[C@@H]2CO)[C@H](O)[C@@H](O)[C@@H]1N[C@H]1C=C(CO)[C@@H](O)[C@H](O)[C@H]1O (some centres undefined) [ACARBOSE] |  | 1455 |  |  |  | IC50 [2]: Not Active; IC50 (PANC-1 [3]; panc-1): Not Active
19 | COc1cc(OC)c(/C=C2\SC(=O)N(Cc3cccc([N+](=O)[O-])c3)C2=O)c(OC)c1 | 11.37 | 22596 | 44.6 | 28.4 | 178 | 
20 | COc1ccc(/C=C2\SC(=O)N(Cc3cccc([N+](=O)[O-])c3)C2=O)c(OC)c1 | 65.52 | 37797 | 30.2 | 32.1 | 166 | 
21 | COc1cc(/C=C2\SC(=O)N(Cc3cccc([N+](=O)[O-])c3)C2=O)ccc1O | 19.73 | 66221 | 40.5 | 38.1 | 190 | 
22 | COc1ccc(/C=C2\SC(=O)N(Cc3cccc([N+](=O)[O-])c3)C2=O)cc1O | 32.94 | 72737 | 28 | 70.9 | 215 | 
23 | O=C1S/C(=C\c2ccc3c(c2)OCO3)C(=O)N1Cc1cn(-c2ccccc2Cl)nn1 |  |  |  |  |  | IC50 [20]: 0.1 µg/mL (≈ 0.227 µM)
